Tested on: yeast genes (expressed mRNA)
Assay: DNA chip measurement of expressed mRNA of yeast genes after culture with a toxic chemical substance
Format: cell-based, Saccharomyces cerevisiae S288C
Details: for level of expressed mRNA in the presence of chemical substance / level in the absence of chemical substance: cultured two hours with the chemical substance; for The level of expressed mRNA in the presence of chemical substance/The level of expressed mRNA in the absence of chemical substance: cultured two hours with substance
Experimental: Yeast (Saccharomyces cerevisiae S288C (a SUC2mal mel gap2 CUP1)) were cultured at 25° C. on YPD medium (yeast extract 1%, polypeptone 2%, glucose 2%). One of toxic chemical substances was added to the cell at logarithmic growth phase, and the cell was further cultured for two hours. Cell was cultured without any chemical substance in the same condition, and was used as a control. Concentrations of the chemical substances were defined to inhibit the growth of the yeast but not lead to death.
After the completion of cultivation, the culture was centrifuged to collect the cells. To the cells, sodium acetate buffer (50 mM sodium acetate, 10 mM EDTA, 1% SDS) was added, and the mixture was shaken at 65° C. for five minutes, followed by returning to room temperature, and obtaining the supernatant, which procedure was repeated two times. To the supernatant, ½ amount of a solution of phenol/chloroform (1:1) was added, and the mixture was centrifuged to give a supernatant, an equal amount of chloroform was added, and the mixture was centrifuged to give a supernatant. To the supernatant, an equal amount of isopropanol containing 0.3 M sodium acetate was added, and the mixture was allowed to stand at room temperature for 30 minutes, after which the mixture was centrifuged to give sediment of the whole RNAs. Seventy % ethanol was added to the sediment, and the mixture was again centrifuged to give sediment, which was then dried and dissolved in water. mRNA was isolated from the whole RNAs as followings. In view of the fact that a poly A chain is attached to the 3′ terminus of mRNA, a polynucleotide having a poly T structure which was immobilized on the surface of latex beads was used to trap the mRNA, and then the mRNA was washed and eluted with spine column (Oligotex-dT30<Super>mRNA Purification Kit, Takara). Reverse transcription of the mRNA was conducted with a reverse transcriptase (Super Script II Reverse Transcriptase; catalogue No. 18064-014, GibcoBRL) using fluorescence-labeled nucleotides to give cDNAs that were introduced with Cy3-dUTP or Cy5-dUTP during the reverse transcription.
The labeled cDNAs were dissolved in TE buffer (10 mM Tris-HCl/1 mM EDTA, pH 8.0), and the solution was dropped on the DNA chip containing the whole genes of yeast (DNA Chip Research Inc. Japan) so that the cDNAs were hybridized on the DNA chip at 65° C. for over 12 hours. The fluoresces intensity of the DNA chip was read with a scanner, and the ratio relative to the fluorescence intensity resulting from the absence of chemical substance was estimated as the following, which is shown in Tables 1 to 9.
In the Tables, “Intensity” indicated in the rightmost column is a value of the level of expressed mRNA of each gene in control cells as divided by the average level of the expressions of the whole genes. A gene of which mRNA level is lower in control, and is higher in cases of addition of chemical substance, is especially useful in the detection of toxic substances.
Here, when a ratio of an amount of mRNA expressed in the presence of the chemical substance to an amount of mRNA expressed in the absence of the chemical substance is two or more, then it is considered significant.

[Cl][Cd][Cl] [(2), CdCl2]
level of expressed mRNA in the presence of chemical substance / level in the absence of chemical substance (yeast gene YJL097W): 1.1 | The level of expressed mRNA in the presence of chemical substance/The level of expressed mRNA in the absence of chemical substance (yeast gene YJL151C): 2.4 | The level of expressed mRNA in the presence of chemical substance/The level of expressed mRNA in the absence of chemical substance (yeast gene YJL152W): 1.5 | The level of expressed mRNA in the presence of chemical substance/The level of expressed mRNA in the absence of chemical substance (yeast gene YJL161W): 2.2 | The level of expressed mRNA in the presence of chemical substance/The level of expressed mRNA in the absence of chemical substance (yeast gene YJL171C): 0.7 | The level of expressed mRNA in the presence of chemical substance/The level of expressed mRNA in the absence of chemical substance (yeast gene YJR008W): 1.5 | level of expressed mRNA in the presence of chemical substance / level in the absence of chemical substance (yeast gene YJR030C): 4.4 | The level of expressed mRNA in the presence of chemical substance/The level of expressed mRNA in the absence of chemical substance (yeast gene YJR054W): 0.9 | level of expressed mRNA in the presence of chemical substance / level in the absence of chemical substance (yeast gene YKL051W): 1.1 | The level of expressed mRNA in the presence of chemical substance/The level of expressed mRNA in the absence of chemical substance (yeast gene YKL071W): 3.8 | The level of expressed mRNA in the presence of chemical substance/The level of expressed mRNA in the absence of chemical substance (yeast gene YKL086W): 1.1 | level of expressed mRNA in the presence of chemical substance / level in the absence of chemical substance (yeast gene YKL097C): 1.6 | level of expressed mRNA in the presence of chemical substance / level in the absence of chemical substance (yeast gene YKL100C): 1.1 | The level of expressed mRNA in the presence of chemical substance/The level of expressed mRNA in the absence of chemical substance (yeast gene YKL151C): 3.1 | The level of expressed mRNA in the presence of chemical substance/The level of expressed mRNA in the absence of chemical substance (yeast gene YKL153W): 1.4 | The level of expressed mRNA in the presence of chemical substance/The level of expressed mRNA in the absence of chemical substance (yeast gene YKL195W): 0.5 | level of expressed mRNA in the presence of chemical substance / level in the absence of chemical substance (yeast gene YKR040C): 3.7 | The level of expressed mRNA in the presence of chemical substance/The level of expressed mRNA in the absence of chemical substance (yeast gene YKR091W): 2.3 | The level of expressed mRNA in the presence of chemical substance/The level of expressed mRNA in the absence of chemical substance (yeast gene YLR054C): 1.5 | The level of expressed mRNA in the presence of chemical substance/The level of expressed mRNA in the absence of chemical substance (yeast gene YLR149C): 1.9 | The level of expressed mRNA in the presence of chemical substance/The level of expressed mRNA in the absence of chemical substance (yeast gene YLR152C): 1.3 | The level of expressed mRNA in the presence of chemical substance/The level of expressed mRNA in the absence of chemical substance (yeast gene YLR194C): 2.2 | level of expressed mRNA in the presence of chemical substance / level in the absence of chemical substance (yeast gene YLR226W): 1.8 | The level of expressed mRNA in the presence of chemical substance/The level of expressed mRNA in the absence of chemical substance (yeast gene YLR324W): 1.2 | level of expressed mRNA in the presence of chemical substance / level in the absence of chemical substance (yeast gene YLR338W): 1.6 | The level of expressed mRNA in the presence of chemical substance/The level of expressed mRNA in the absence of chemical substance (yeast gene YLR350W): 1.9 | The level of expressed mRNA in the presence of chemical substance/The level of expressed mRNA in the absence of chemical substance (yeast gene YLR387C): 1.6 | level of expressed mRNA in the presence of chemical substance / level in the absence of chemical substance (yeast gene YLR392C): 0.9 | level of expressed mRNA in the presence of chemical substance / level in the absence of chemical substance (yeast gene YLR415C): 2.4 | level of expressed mRNA in the presence of chemical substance / level in the absence of chemical substance (yeast gene YLR427W): 1.0 | The level of expressed mRNA in the presence of chemical substance/The level of expressed mRNA in the absence of chemical substance (yeast gene YLR460C): 2.1 | level of expressed mRNA in the presence of chemical substance / level in the absence of chemical substance (yeast gene YML013W): 1.0 | level of expressed mRNA in the presence of chemical substance / level in the absence of chemical substance (yeast gene YML029W): 1.5 | level of expressed mRNA in the presence of chemical substance / level in the absence of chemical substance (yeast gene YML041C): 1.0 | level of expressed mRNA in the presence of chemical substance / level in the absence of chemical substance (yeast gene YML079W): 1.7 | The level of expressed mRNA in the presence of chemical substance/The level of expressed mRNA in the absence of chemical substance (yeast gene YML117W): 2.2 | The level of expressed mRNA in the presence of chemical substance/The level of expressed mRNA in the absence of chemical substance (yeast gene YMR009W): 1.9 | The level of expressed mRNA in the presence of chemical substance/The level of expressed mRNA in the absence of chemical substance (yeast gene YMR067C): 0.9 | level of expressed mRNA in the presence of chemical substance / level in the absence of chemical substance (yeast gene YMR068W): 0.7 | level of expressed mRNA in the presence of chemical substance / level in the absence of chemical substance (yeast gene YMR071C): 2.0 | The level of expressed mRNA in the presence of chemical substance/The level of expressed mRNA in the absence of chemical substance (yeast gene YMR090W): 9.5 | The level of expressed mRNA in the presence of chemical substance/The level of expressed mRNA in the absence of chemical substance (yeast gene YMR095C): 2.0 | The level of expressed mRNA in the presence of chemical substance/The level of expressed mRNA in the absence of chemical substance (yeast gene YMR097C): 1.0 | The level of expressed mRNA in the presence of chemical substance/The level of expressed mRNA in the absence of chemical substance (yeast gene YMR102C): 2.9 | The level of expressed mRNA in the presence of chemical substance/The level of expressed mRNA in the absence of chemical substance (yeast gene YMR107W): 3.9 | level of expressed mRNA in the presence of chemical substance / level in the absence of chemical substance (yeast gene YMR160W): 1.3 | The level of expressed mRNA in the presence of chemical substance/The level of expressed mRNA in the absence of chemical substance (yeast gene YMR180C): 0.9 | The level of expressed mRNA in the presence of chemical substance/The level of expressed mRNA in the absence of chemical substance (yeast gene YMR184W): 5.4 | The level of expressed mRNA in the presence of chemical substance/The level of expressed mRNA in the absence of chemical substance (yeast gene YMR191W): 2.4 | The level of expressed mRNA in the presence of chemical substance/The level of expressed mRNA in the absence of chemical substance (yeast gene YMR295C): 1.0 | The level of expressed mRNA in the presence of chemical substance/The level of expressed mRNA in the absence of chemical substance (yeast gene YMR316W): 2.9 | level of expressed mRNA in the presence of chemical substance / level in the absence of chemical substance (yeast gene YNL026W): 1.0 | The level of expressed mRNA in the presence of chemical substance/The level of expressed mRNA in the absence of chemical substance (yeast gene YNL044W): 0.9

— patent US20100041089A1, “IMPROVED METHOD FOR DETECTING CHEMICAL […]” (priority 2006, published 2010)
